This test has as its system RENCA renal cancer cells grafted in the renal capsule. Description: Orthotopic RENCA renal cancer allograft. It is filed as in vivo, BALB/c mice. The note with it: three i.v. injections in fourth week after grafting; p < 0.003.

The structures appear in SMILES notation.

For the molecule `CC(=O)O[C@H]1C(=O)[C@@]2(C)[C@H]([C@H](OC(=O)c3ccccc3)[C@]3(O)C[C@H](OC(=O)[C@H](O)[C@@H](NC(=O)c4ccccc4)c4ccccc4)C(C)=C1C3(C)C)[C@]1(OC(C)=O)CO[C@@H]1C[C@@H]2O` [PTX, paclitaxel], the “tumor volume compared to vehicle control” value is given as “significantly decreased tumor volume”.
